Paper PMC6591635, “Advancing the Therapeutic Potential of Indoleamides for Tuberculosis” (Antimicrobial Agents and Chemotherapy, 2019)
≈ marks a conversion by molar mass, not a printed value. Where “and” joins values, the source holds several entries; their conditions need not be identical. Equal entries are not always repeated. Where two headings read alike, the source gives them in different places. Marks after values point to notes of the source that are not given here.

Experiments:
M. tuberculosis H37Rv [1] = experiment: Field emission scanning electron microscopy of cell morphology (dimples per 100 bacilli); type: cell-based, Mycobacterium tuberculosis; conditions: 24 hours of treatment, FESEM; for Cell morphology (dimples per 100 cells, deformed bacilli): 10× MIC
M. tuberculosis H37Rv [2] = conditions: M. tuberculosis; stated without method in this paper; cited from earlier work
in vitro = conditions: mouse, plasma
M. tuberculosis H37Rv [3] = tested on: M. tuberculosis H37Rv; design: method as in PMID 27275668; conditions: 4 weeks of treatment, 0.5% (wt/vol) CMC formulation, previous study; cited from earlier work
M. tuberculosis H37Rv [4] = experiment: animal or person; type: in vivo, Mycobacterium tuberculosis; conditions: for Lung CFU burden compared with untreated controls: 10 mg/kg, 4 weeks of treatment, P < 0.05; for ED50: Mycobacterium tuberculosis, H37RV, in Mus musculus, inhaled or nasal, 672 h, read-out: 50% effective dose (ED50)
M. tuberculosis H37Rv [5] = type: in vivo, Mycobacterium tuberculosis
[6] = Single dose pharmacokinetic study in mice (oral formulations, i.v.); type: in vivo, Swiss Webster mice; conditions: mouse
Method: To enhance oral bioavailability, we developed a novel formulation for compound 2 in propylene glycol (PG):Tween 80 (4:1, vol/vol). We compared the bioavailability of this new formulation with a previously reported formulation using 0.5% (wt/vol) carboxymethyl cellulose (CMC) ([19]). For oral (p.o.) administration, compound 2 was prepared in either formulation at 1 mg/ml of homogeneous suspension to achieve a 10-mg/kg dose level. For intravenous (i.v.) injection, a 0.22-mg/ml solution of compound 2 in PG:Tween 80:5% glucose at 20:10:70 (vol/vol/vol) was used. Five-week-old male Swiss Webster mice were randomly assigned to time points (3 mice per arm per time point). Serial blood samples of approximately 30 μl were collected at 0.25, 0.5, 1, 2, 4, 8, and 24 h after a single p.o. dose; and at 0.083, 0.33, 1, 2, 4, 8, and 24 h after a single i.v. dose. Plasma was harvested and stored at −80°C until analysis. Plasma samples were analyzed for compound 2 using liquid chromatography-tandem mass spectrometry (LC-MS/MS), with a limit of quantification of 1.05 ng/ml. Estimation of pharmacokinetic parameters was conducted using noncompartmental analysis with WinNonlin software (Phoenix 6.3).

[7] = 50 mg/kg, 4 weeks of treatment, PG:Tween 80 formulation
[8] = male, Swiss Webster, in vivo, po, 10 mg/kg

Cc1cc(C)c2cc(C(=O)NC3CCCCCCC3)[nH]c2c1 [compound 1]
Cell morphology (unhealthy cells: dimples at poles and septum, wrinkled cell surface) versus untreated (M. tuberculosis H37Rv [1]; 1× and 10× MIC): significantly higher number of unhealthy cells
Cell morphology (dimples per 100 cells, deformed bacilli) (M. tuberculosis H37Rv [1]): higher rate of deformed bacilli than 1× MIC

C[C@@H]1[C@H]2C[C@@H](C[C@H]1NC(=O)c1cc3c(F)cc(F)cc3[nH]1)C2(C)C [compound 2]
MIC (M. tuberculosis H37Rv [2]): 4 ng/mL (≈ 0.012 µM)
fraction unbound (in vitro): 0.032
Lung CFU counts higher than positive control ethambutol at 100 mg/kg (M. tuberculosis H37Rv [3]): 2.0 log
Lung CFU burden compared with untreated controls (M. tuberculosis H37Rv [4]): significantly reduced the lung CFU burden
ED50 (M. tuberculosis H37Rv [4]): 28.9 mg/kg
Lung CFU count lower than that of positive control ethambutol at 100 mg/kg (M. tuberculosis H37Rv [5]; [7]): 1.2 log
Mean lung CFU count lower than that of untreated controls (M. tuberculosis H37Rv [5]; [7]): 4.66 log
Lung CFU counts, Week 2 (M. tuberculosis H37Rv [5]; […], compound 2 in PG:Tween 80): 3.40 (NA)^b^,^c
Lung CFU counts, Week 4 (M. tuberculosis H37Rv [5]; […], compound 2 in PG:Tween 80): 2.82 (0.34)^b
F (relative bioavailability) ([6]; 10 mg/kg p.o., PG:Tween 80 formulation (suspension)): 96%
F ([6]; Swiss Webster, in vivo): 22%
F (relative bioavailability) ([6]; male, Swiss Webster, in vivo): 22%
Time for which plasma concentration of free compound exceeded the MIC postdose ([6]; male, Swiss Webster, in vivo): 24 h
Increase in relative bioavailability compared with the CMC formulation [6, 8]: 74%
Tmax [6, 8]: 1.00 ± 0.00 h
Tmax ([6]; male, Swiss Webster, in vivo, po, 10 mg/kg, Tmax): 1.25 ± 1.06 h

CC1(C)CCC(NC(=O)c2cc3c(Cl)cc(Cl)cc3[nH]2)CC1 [compound 3]
Lung CFU burden compared with untreated controls (M. tuberculosis H37Rv [4]): did not
ED50 (M. tuberculosis H37Rv [4]): 43 mg/kg
Lung CFU, D28 (M. tuberculosis H37Rv [4]; in vivo): 7.05±0.09 and 6.99±0.19 and 5.66±0.14 and 4.15±0.06 and 3.65±0.11

CC[C@@H](CO)NCCN[C@@H](CC)CO [ethambutol, reference compound]
Lung CFU counts, Week 2 (M. tuberculosis H37Rv [5]; […], compound 2 in PG:Tween 80): 4.34 (0.25)^b
Lung CFU counts, Week 4 (M. tuberculosis H37Rv [5]; […], compound 2 in PG:Tween 80): 5.60 (0.24)^b
Lung CFU counts, Week 2 (M. tuberculosis H37Rv [5]; in vivo): 3.56 (0.26)^b
Lung CFU counts, Week 4 (M. tuberculosis H37Rv [5]; in vivo): 4.02 (0.28)^b

NNC(=O)c1ccncc1 [isoniazid, reference compound]
Cell morphology (dimples per 100 cells, deformed bacilli) (M. tuberculosis H37Rv [1]): more dimples per 100 cells than no treatment, but the difference did not reach statistical significance
